# From patent US20140148443A1, “Novel Imidazolines as dual inhibitors of MDM2 and MDMX” (priority 2012, published 2014)
# Tests used:
# [1] = molecular target: recombinant GST-tagged MDM2 (Homo sapiens, UniProt Q00987); experiment: HTRF assay of interaction between p53 peptide and GST-tagged MDM2; settings: inhibition of GST-MDM2 (160 ng/ml) binding to biotinylated p53-peptide
# Protocol: The ability of a test compound to inhibit the interaction between p53 and MDM2 protein was measured by an HTRF (homogeneous time-resolved fluorescence) assay in which recombinant GST-tagged MDM2 binds to a peptide that resembles the MDM2-interacting region of p53 Aca-[…]-OH hereinafter p53-peptide). Binding of GST-MDM2 protein and p53-peptide (biotinylated on its N-terminal end) is registered by the FRET (fluorescence resonance energy transfer) between Europium (Eu)-labeled anti-GST antibody and streptavidin-conjugated Allophycocyanin (APC).
# The test was performed in black flat-bottom 384-well plates (Costar) in a total volume of 40 uL containing: 90 nM biotinylated peptide, 160 ng/ml GST-MDM2, 20 nM streptavidin-APC (PerkinElmerWallac), 2 nM Eu-labeled anti-GST-antibody (PerkinElmerWallac), 0.02% bovine serum albumin (BSA), 1 mM dithiothreitol (DTT) and 20 mM […] (TBS) buffer as follows: add 10 uL of GST-MDM2 (640 ng/ml working solution) in reaction buffer to each well. Add 10 uL diluted compounds (1:5 dilution in reaction buffer) to each well, mix by shaking. Add 20 uL biotinylated p53 peptide (180 nM working solution) in reaction buffer to each well and mix on shaker. Incubate at 37° C. for 1 h. Add […] streptavidin-APC and Eu-anti-GST antibody mixture (6 nM Eu-anti-GST and 60 nM streptavidin-APC working solution) in TBS buffer with 0.02% BSA, shake at room temperature for 30 minutes and read using a TRF-capable plate reader at 665 and 615 nm (Victor 5, Perkin ElmerWallac). If not specified, the reagents were purchased from Sigma Chemical Co.
# [2] = molecular target: T1, GST-tagged MDMX (Homo sapiens, UniProt O15151); experiment: HTRF binding assay of GST-tagged MDMX to p53 peptide
# T1 sequence (O15151 1-490): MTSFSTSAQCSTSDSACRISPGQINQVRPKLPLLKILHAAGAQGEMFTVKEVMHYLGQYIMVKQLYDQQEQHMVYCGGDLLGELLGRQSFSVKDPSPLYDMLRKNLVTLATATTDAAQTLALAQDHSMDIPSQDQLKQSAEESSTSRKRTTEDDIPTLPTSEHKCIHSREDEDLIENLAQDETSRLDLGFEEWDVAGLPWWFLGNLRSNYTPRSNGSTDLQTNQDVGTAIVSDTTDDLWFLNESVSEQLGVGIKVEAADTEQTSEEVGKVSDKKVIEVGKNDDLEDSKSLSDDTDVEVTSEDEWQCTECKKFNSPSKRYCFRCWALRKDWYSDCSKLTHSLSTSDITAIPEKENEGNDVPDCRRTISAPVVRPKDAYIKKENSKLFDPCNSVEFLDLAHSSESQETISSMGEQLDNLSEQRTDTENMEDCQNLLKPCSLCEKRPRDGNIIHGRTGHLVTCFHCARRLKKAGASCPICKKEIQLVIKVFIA
# recombinant GST-tagged MDM2, sequence (Q00987 whole entry): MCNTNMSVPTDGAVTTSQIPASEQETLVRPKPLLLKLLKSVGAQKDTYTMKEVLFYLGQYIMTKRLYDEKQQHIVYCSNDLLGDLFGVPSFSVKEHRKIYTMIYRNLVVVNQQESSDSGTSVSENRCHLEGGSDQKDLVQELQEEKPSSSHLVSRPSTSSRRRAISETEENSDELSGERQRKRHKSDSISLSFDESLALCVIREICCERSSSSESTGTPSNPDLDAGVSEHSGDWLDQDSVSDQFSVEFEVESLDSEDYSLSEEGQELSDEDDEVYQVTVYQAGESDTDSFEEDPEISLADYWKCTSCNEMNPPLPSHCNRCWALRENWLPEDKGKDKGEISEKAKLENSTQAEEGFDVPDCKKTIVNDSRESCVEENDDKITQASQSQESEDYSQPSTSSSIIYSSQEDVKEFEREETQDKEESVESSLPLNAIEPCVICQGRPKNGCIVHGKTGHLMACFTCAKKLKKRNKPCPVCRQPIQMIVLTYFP
Compound,IC50 [1] [nM],IC50 [2] [nM]
"CCOc1cc(Cl)c(S(=O)(=O)NC(C)(C)C)cc1C1=N[C@@](C)(c2ccc(Cl)cc2)[C@@](C)(c2ccc(Cl)cc2)N1C(=O)N1CCC(N2CCNC(=O)CC2)CC1 [Example 53, 5-{(4S,5R)-4,5-Bis-(4-chloro-phenyl)-4,5-dimethyl-1-[4-(5-oxo-[1,4]diazepan-1-yl)-piperidine-1-carbonyl]-4,5-dihydro-1H-imidazol-2-yl}-N-tert-butyl-2-chloro-4-ethoxy-benzene sulfonamide]",14.5,1110
"C[C@@]1(c2ccc(Cl)cc2)N=C(c2cc(S(C)(=O)=O)c(Cl)cc2OCCF)N(C(=O)N2CCN(CCCS(C)(=O)=O)CC2)[C@]1(C)c1ccc(Cl)cc1 [Example 43, [(4S,5R)-2-[4-Chloro-2-(2-fluoro-ethoxy)-5-methanesulfonyl-phenyl]-4,5-bis-(4-chloro-phenyl)-4,5-dimethyl-4,5-dihydro-imidazol-1-yl]-[4-(3-methanesulfonyl-propyl)-piperazin-1-yl]-methanone]",9.7,1380
"CCOc1cc(Cl)c(S(C)(=O)=O)cc1C1=N[C@@](C)(c2ccc(Cl)cc2)[C@@](C)(c2ccc(Cl)cc2)N1C(=O)N1CCN(CCS(=O)(=O)CC)CC1 [Example 26, [(4S,5R)-2-(4-Chloro-2-ethoxy-5-methanesulfonyl-phenyl)-4,5-bis-(4-chloro-phenyl)-4,5-dimethyl-4,5-dihydro-imidazol-1-yl]-[4-(2-ethanesulfonyl-ethyl)-piperazin-1-yl]-methanone]",5.2,2010
"CCOCCN(CCOCC)C(=O)CC1CCN(C(=O)N2C(c3cc(S(C)(=O)=O)c(Cl)cc3OCC)=N[C@@](C)(c3ccc(Cl)cc3)[C@@]2(C)c2ccc(Cl)cc2)CC1 [Example 25, 2-{1-[(4S,5R)-2-(4-Chloro-2-ethoxy-5-methanesulfonyl-phenyl)-4,5-bis-(4-chloro-phenyl)-4,5-dimethyl-4,5-dihydro-imidazole-1-carbonyl]-piperidin-4-yl}-N,N-bis-(2-ethoxy-ethyl)-acetamide]",4.4,1510
"CCOc1cc(Cl)c(S(C)(=O)=O)cc1C1=N[C@@](C)(c2ccc(Cl)cc2)[C@@](C)(c2ccc(Cl)cc2)N1C(=O)N1CCC2(CCN(CCS(=O)(=O)CC)CC2)CC1 [Example 28, [(4S,5R)-2-(4-Chloro-2-ethoxy-5-methanesulfonyl-phenyl)-4,5-bis-(4-chloro-phenyl)-4,5-dimethyl-4,5-dihydro-imidazol-1-yl]-[9-(2-ethanesulfonyl-ethyl)-3,9-diaza-spiro[5.5]undec-3-yl]-methanone]",4.6,1490
"CCOc1cc(Cl)c(S(C)(=O)=O)cc1C1=N[C@@](C)(c2ccc(Cl)cc2)[C@@](C)(c2ccc(Cl)cc2)N1C(=O)N1CCN(CCC(N)=O)CC1 [Example 27, 3-{4-[(4S,5R)-2-(4-Chloro-2-ethoxy-5-methanesulfonyl-phenyl)-4,5-bis-(4-chloro-phenyl)-4,5-dimethyl-4,5-dihydro-imidazole-1-carbonyl]-piperazin-1-yl}-propionamide]",8.8,2810
"CCOc1cc(Cl)c(S(=O)(=O)NC(C)(C)C)cc1C1=N[C@@](C)(c2ccc(Cl)cc2)[C@@](C)(c2ccc(Cl)cc2)N1C(=O)N1CCN(CCC(O)CO)CC1 (stereo partly drawn) [Example 45, 5-{(4S,5R)-4,5-Bis-(4-chloro-phenyl)-1-[4-(3,4-dihydroxy-butyl)-piperazine-1-carbonyl]-4,5-dimethyl-4,5-dihydro-1H-imidazol-2-yl}-N-tert-butyl-2-chloro-4-ethoxy-benzene sulfonamide]",12.9,1130
"CCOc1cc(Cl)c(S(C)(=O)=O)cc1C1=N[C@@](C)(c2ccc(Cl)cc2)[C@@](C)(c2ccc(Cl)cc2)N1C(=O)N1CCN(CC(=O)NC)CC1 [Example 29, 2-{4-[(4S,5R)-2-(4-Chloro-2-ethoxy-5-methanesulfonyl-phenyl)-4,5-bis-(4-chloro-phenyl)-4,5-dimethyl-4,5-dihydro-imidazole-1-carbonyl]-piperazin-1-yl}-N-methyl-acetamide]",5,1010
"CCOc1cc(Cl)c(S(=O)(=O)NC(C)(C)C)cc1C1=N[C@@](C)(c2ccc(Cl)cc2)[C@@](C)(c2ccc(Cl)cc2)N1C(=O)N1CCN(CC(=O)N2CCN(C)CC2)CC1 [Example 47, 5-((4S,5R)-4,5-Bis-(4-chloro-phenyl)-4,5-dimethyl-1-{4-[2-(4-methyl-piperazin-1-yl)-2-oxo-ethyl]-piperazine-1-carbonyl}-4,5-dihydro-1H-imidazol-2-yl)-N-tert-butyl-2-chloro-4-ethoxy-benzenesulfonamide]",6.6,1080
"CCOc1cc(Cl)c(S(C)(=O)=O)cc1C1=N[C@@](C)(c2ccc(Cl)cc2)[C@@](C)(c2ccc(Cl)cc2)N1C(=O)N1CCC(O)CC1 [Example 38, [(4S,5R)-2-(4-Chloro-2-ethoxy-5-methanesulfonyl-phenyl)-4,5-bis-(4-chloro-phenyl)-4,5-dimethyl-4,5-dihydro-imidazol-1-yl]-(4-hydroxy-piperidin-1-yl)-methanone]",8.4,2890
"C[C@@]1(c2ccc(Cl)cc2)N=C(c2cc(S(C)(=O)=O)c(Cl)cc2OCC2CC2)N(C(=O)N2CCN(CCCS(C)(=O)=O)CC2)[C@]1(C)c1ccc(Cl)cc1 [Example 42, [(4S,5R)-2-(4-Chloro-2-cyclopropylmethoxy-5-methanesulfonyl-phenyl)-4,5-bis-(4-chloro-phenyl)-4,5-dimethyl-4,5-dihydro-imidazol-1-yl]-[4-(3-methanesulfonyl-propyl)-piperazin-1-yl]-methanone]",12.5,6630
"CCC(C)Oc1cc(Cl)c(S(C)(=O)=O)cc1C1=N[C@@](C)(c2ccc(Cl)cc2)[C@@](C)(c2ccc(Cl)cc2)N1C(=O)N1CCN(CCCS(C)(=O)=O)CC1 (stereo partly drawn) [Example 44, [(4S,5R)-2-(2-sec-Butoxy-4-chloro-5-methanesulfonyl-phenyl)-4,5-bis-(4-chloro-phenyl)-4,5-dimethyl-4,5-dihydro-imidazol-1-yl]-[4-(3-methanesulfonyl-propyl)-piperazin-1-yl]-methanone]",13.9,1530
"CCOc1cc(Cl)c(S(=O)(=O)N2CCOCC2)cc1C1=N[C@@](C)(c2ccc(Cl)cc2)[C@@](C)(c2ccc(Cl)cc2)N1C(=O)N1CCN(CCCS(C)(=O)=O)CC1 [Example 57, [(4S,5R)-2-[4-Chloro-2-ethoxy-5-(morpholine-4-sulfonyl)-phenyl]-4,5-bis-(4-chloro-phenyl)-4,5-dimethyl-4,5-dihydro-imidazol-1-yl]-[4-(3-methanesulfonyl-propyl)-piperazin-1-yl]-methanone]",40,1640
"CCOc1cc(Cl)c(S(C)(=O)=O)cc1C1=N[C@@](C)(c2ccc(Cl)cc2)[C@@](C)(c2ccc(Cl)cc2)N1C(=O)N1CCC(N(C)CCCN(C)C)C1 (stereo partly drawn) [Example 37, [(4S,5R)-2-(4-Chloro-2-ethoxy-5-methanesulfonyl-phenyl)-4,5-bis-(4-chloro-phenyl)-4,5-dimethyl-4,5-dihydro-imidazol-1-yl]-{3-[(3-dimethylamino-propyl)-methyl-amino]-pyrrolidin-1-yl}-methanone]",6.1,3910
"CCOc1cc(Cl)c(S(C)(=O)=O)cc1C1=N[C@@](C)(c2ccc(Cl)cc2)[C@@](C)(c2ccc(Cl)cc2)N1C(=O)N1CCC(N)CC1 [Example 8, (4-Amino-piperidin-1-yl)-[(4S,5R)-2-(4-chloro-2-ethoxy-5-methanesulfonyl-phenyl)-4,5-bis-(4-chloro-phenyl)-4,5-dimethyl-4,5-dihydro-imidazol-1-yl]-methanone]",4.4,1070
"CCOc1cc(Cl)c(S(C)(=O)=O)cc1C1=N[C@@](C)(c2ccc(Cl)cc2)[C@@](C)(c2ccc(Cl)cc2)N1C(=O)N1CCC(NC(=O)NC2CCS(=O)(=O)C2)CC1 (stereo partly drawn) [Example 34, 1-{1-[(4S,5R)-2-(4-Chloro-2-ethoxy-5-methanesulfonyl-phenyl)-4,5-bis-(4-chloro-phenyl)-4,5-dimethyl-4,5-dihydro-imidazole-1-carbonyl]-piperidin-4-yl}-3-(1,1-dioxo-tetrahydro-1λ6-thiophen-3-yl)-urea]",6.3,1350
